Test results: US20040209897A1 (Pharmacia Corporation, priority 2002, published 2004)
Structures can show the parent of a compound that is named as a salt.

Molecular target: Recombinant MAPKAPK2 (MK-2) (Homo sapiens, UniProt P49137)
Test: Determination of MK-2 IC50 (HSP-peptide phosphorylation, anion exchange resin capture assay)
Assay type: biochemical
Description: The phosphorylation of HSP-peptide ([sequence]) by MAPKAPK2 was measured using an anion exchange resin capture assay method. […] The reaction was terminated and [γ^33P]ATP was removed from solution by the addition of 150 μl of AG 1×8 ion exchange resin in 900 mM sodium formate pH 3.0. A 50 μl aliquot of head volume was removed from the quenched reaction mixture and added to a 96-well plate, 150 μl of Microscint-40 (Packard) was added and the amount of phosphorylated-peptide was determined.
Compounds are evaluated as potential inhibitors of the MK2 kinase by measuring their effects on MK2 phosphorylation of the peptide substrate. Compounds may be screened initially at two concentrations prior to determination of IC50 values. Screening results are expressed as percent inhibition at the concentrations of compound tested. For IC50 value determinations, compounds are tested at six concentrations in ten-fold serial dilutions with each concentration tested in triplicate. Results are expressed as IC50 values in micromolar. The assay is performed at a final concentration of 2% DMSO.

Recombinant MAPKAPK2 (MK-2), sequence (P49137 whole entry, species assumed): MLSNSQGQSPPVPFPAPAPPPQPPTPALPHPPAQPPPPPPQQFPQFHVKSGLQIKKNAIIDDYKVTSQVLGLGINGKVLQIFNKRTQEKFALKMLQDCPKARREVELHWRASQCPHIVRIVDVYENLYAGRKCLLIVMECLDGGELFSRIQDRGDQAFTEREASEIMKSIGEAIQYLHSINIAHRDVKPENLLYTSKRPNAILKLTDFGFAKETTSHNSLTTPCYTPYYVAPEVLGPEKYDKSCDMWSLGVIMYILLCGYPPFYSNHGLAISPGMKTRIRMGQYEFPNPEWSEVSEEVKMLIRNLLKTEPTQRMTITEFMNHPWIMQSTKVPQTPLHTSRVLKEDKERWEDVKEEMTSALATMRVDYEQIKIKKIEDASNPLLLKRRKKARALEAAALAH

| Structure (SMILES) | IC50 (MAPKAP2 Avg. IC50) [nM] | also measured |
| --- | --- | --- |
| O=C1NCCc2[nH]c(-c3ccnc(/C=C/c4ccc(N5CCOCC5)c(F)c4)c3)cc21 [Example 156, trifluoroacetate] | 28.1 | – |
| CN(C)C/C=C/C(=O)Nc1cccc(-c2cc(-c3cc4c([nH]3)CCNC4=O)ccn2)c1 [Example 338, trifluoroacetate] | 64.8 | – |
| O=C1NCCc2[nH]c(-c3ccnc(/C=C/c4csc(-c5ccccc5)n4)c3)cc21 [Example 602, trifluoroacetate] | 348 | – |
| CN(N)c1cc(-c2cc3c([nH]2)CCNC3=O)ccn1 [Example 756, 2-[2-(1-methylhydrazino)pyridin-4-yl]-1,5,6,7-tetrahydro-4H-pyrrolo[3,2-c]pyridin-4-one] | 4910 | – |
| CC(C)C(=O)Nc1ccc(-c2cc(-c3cc4c([nH]3)CCNC4=O)ccn2)cc1 [Example 88, trifluoroacetate] | 19.5 | – |
| CC1CNC(=O)c2cc(-c3ccnc(-c4ccccc4F)c3)[nH]c21 (centres unmarked) [Example 505] | 145 | – |
| NCCc1[nH]c(-c2ccnc(NN)c2)cc1C(=O)NN [Example 817, 2-(2-aminoethyl)-5-(2-hydrazinopyridin-4-yl)-1H-pyrrole-3-carbohydrazide] | – | IC50 (MAPKAP2 Avg. IC50, MK-2 inhibiting activity, Table I): 20000 nM |
| N#Cc1ccccc1/C=C/c1cc(-c2cc3c([nH]2)CCNC3=O)ccn1 [Example 225, trifluoroacetate] | 38.9 | – |
| O=C(CCCOc1ccc(-c2cc(-c3cc4c([nH]3)CCNC4=O)ccn2)cc1)NCCN1CCOCC1 [Example 357, trifluoroacetate] | 72.2 | – |
| CN(C)S(=O)(=O)c1ccc(-c2cc(-c3cc4c([nH]3)CCNC4=O)ccn2)cc1 [Example 470] | 120 | – |
| C=CC(=O)N(CCNC(=O)OC(C)(C)C)c1ccc(-c2cc(-c3cc4c([nH]3)CCNC4=O)ccn2)cn1 [Example 732, trifluoroacetate] | 2330 | – |
| O=C1NCCc2[nH]c(-c3ccnc(/C=C\C=C\c4ccccc4)c3)cc21 [Example 610] | 365 | – |
| O=C1NCCc2[nH]c(-c3cc(-c4cnc5ccccc5c4)ncc3F)cc21 [Example 4, trifluoroacetate] | 7 | – |
| CCc1ccc(-c2cc(-c3cc4c([nH]3)CCNC4=O)ccn2)cc1 [Example 434, trifluoroacetate] | 101 | – |
| CC(=O)OCC(=O)Nc1cccc(-c2cc(-c3cc4c([nH]3)CCNC4=O)ccn2)c1 [Example 279, trifluoroacetate] | 51.1 | – |
| O=C1NCCc2[nH]c(-c3ccnc(/C=C/c4ccccc4-c4ccccc4)c3)cc21 [Example 670, trifluoroacetate] | 816 | – |
| CC1Cc2[nH]c(-c3ccnc(-c4ccc(N(C)C)nc4)c3)cc2C(=O)N1 (centres unmarked) [Example 295, trifluoroacetate] | 53.4 | – |
| O=C1NCCc2[nH]c(-c3ccnc(/C=C/c4c(F)cccc4F)c3)cc21 [Example 59, trifluoroacetate] | 16 | – |
| O=C1NCCc2[nH]c(-c3ccnc(/C=C/c4ccc(-c5ccccc5)s4)c3)cc21 [Example 683, trifluoroacetate] | 1020 | – |
| O=C(CCl)NCc1cccc(-c2cc(-c3cc4c([nH]3)CCNC4=O)ccn2)c1 [Example 344, trifluoroacetate] | 65.9 | – |
| Cc1cc(C)c(/C=C\c2cc(-c3cc4c([nH]3)CCNC4=O)ccn2)cc1C [Example 604, trifluoroacetate] | 354 | – |

| Structure (SMILES) | IC50 (MAPKAP2 Avg. IC50) [nM] | also measured |
| --- | --- | --- |
| O=C1NCCc2[nH]c(-c3ccnc(/C=C\c4ccc(F)c(F)c4)c3)cc21 [Example 687, trifluoroacetate] | 1080 | – |
| O=C(CBr)Nc1cccc(-c2cc(-c3cc4c([nH]3)CCNC4=O)ccn2)c1 [Example 271, trifluoroacetate] | – | kind of MK-2 inhibition (irreversible): irreversible inhibitors |
| C=CC(=O)Nc1cccc(-c2cc(-c3cc4c([nH]3)CCNC4=O)ccn2)c1 [N-[3-[4-(4-oxo-4,5,6,7-tetrahydro-1H-pyrrolo[3,2-c]pyridin-2-yl)pyridin-2-yl]phenyl}acrylamide] | – | kind of MK-2 inhibition (irreversible): irreversible inhibitor |
| O=C1NCCc2[nH]c(-c3ccnc(/C=C/c4cccc(Oc5ccccc5)c4)c3)cc21 [Example 581, trifluoroacetate] | 295 | – |
| O=C1NCCc2[nH]c(-c3ccnc(/C=C/c4ccc(C(F)(F)F)cc4F)c3)cc21 [Example 510, 2-(2-{(E)-2-[2-fluoro-4-(trifluoromethyl)phenyl]vinyl}pyridin-4-yl)-1,5,6,7-tetrahydro-4H-pyrrolo[3,2-c]pyridin-4-one trifluoroacetate] | 150 | – |
| C/C=C/C(=O)Nc1cccc(-c2cc(-c3cc4c([nH]3)CCNC4=O)ccn2)c1 [Example 430, trifluoroacetate] | 99.3 | – |
| CCCCc1cccc(-c2cc(-c3cc4c([nH]3)CCNC4=O)ccn2)c1 [Example 659, trifluoroacetate] | 721 | – |
| COc1cc(/C=C/c2cc(-c3cc4c([nH]3)CCNC4=O)ccn2)cc(OC)c1 [Example 171, trifluoroacetate] | 29.6 | – |
| O=C(/C=C/c1ccccc1)Nc1ccc(-c2cc(-c3cc4c([nH]3)CCNC4=O)ccn2)cc1 [Example 403, trifluoroacetate] | 87.7 | – |
| O=C1NCCc2[nH]c(-c3ccnc(-c4ccc(CCc5ccc(F)cc5)nc4)c3)cc21 [Example 345, trifluoroacetate] | 66.1 | – |
| O=C1NCCc2[nH]c(-c3ccnc(/C=C/c4ccccc4N4CCOCC4)c3)cc21 [Example 529, 2-{2-[(E)-2-(2-morpholin-4-ylphenyl)vinyl]pyridin-4-yl}-1,5,6,7-tetrahydro-4H-pyrrolo[3,2-c]pyridin-4-one trifluoroacetate] | 171 | – |
| O=C(NCC(F)(F)F)c1ccc(-c2cc(-c3cc4c([nH]3)CCNC4=O)ccn2)cc1 [Example 121, trifluoroacetate] | 23.9 | – |
| O=Cc1cccc(-c2cc(-c3cc4c([nH]3)CCNC4=O)ccn2)c1 [Example 204, trifluoroacetate] | 35.5 | – |
| O=C1NCCc2[nH]c(-c3ccnc(-c4cc(F)cc(F)c4)c3)cc21 [Example 80, trifluoroacetate] | 18.5 | – |
| O=C1NCCc2[nH]c(-c3ccnc(/C=C\c4cccnc4)c3)cc21 [Example 747, trifluoroacetate] | 3330 | – |
| C[C@@H]1CN(c2ccccc2/C=C/c2cc(-c3cc4c([nH]3)CCNC4=O)ccn2)C[C@H](C)O1 [Example 766, 2-[2-((E)-2-{2-[(2R,6S)-2,6-dimethylmorpholin-4-yl]phenyl}vinyl)pyridin-4-yl]-1,5,6,7-tetrahydro-4H-pyrrolo[3,2-c]pyridin-4-one trifluoroacetate] | 7540 | – |
| CC(=NO)c1cccc(-c2cc(-c3cc4c([nH]3)CCNC4=O)ccn2)c1 [Example 134, bis(trifluoroacetate)] | 25.7 | – |
| COC(=O)c1ccc(-c2cc(-c3cc4c([nH]3)CCNC4=O)ccn2)cc1 [Example 105, trifluoroacetate] | 22 | – |
| O=C1NCCc2[nH]c(-c3ccnc(/C=C/c4cccnc4)c3)cc21 [Example 78, trifluoroacetate] | 18.3 | – |
| O=C1NCCc2[nH]c(-c3ccc(O)c(-c4cnc5ccccc5c4)c3)cc21 [Example 676] | 937 | – |
| O=C1NCCc2[nH]c(-c3ccnc(/C=C/c4ccccc4N4CCNCC4)c3)cc21 [Example 667, trifluoroacetate] | 791 | – |

| Structure (SMILES) | IC50 (MAPKAP2 Avg. IC50) [nM] | also measured |
| --- | --- | --- |
| O=C(O)c1ccc(-c2cc(-c3cc4c([nH]3)CCNC4=O)c(F)cn2)cc1 [Example 28] | 10.1 | – |
| O=C(CCl)Nc1cccc(-c2cc(-c3cc4c([nH]3)CCNC4=O)ccn2)c1 [Example 401, trifluoroacetate] | 87.5 | – |
| O=C1NCCc2[nH]c(-c3ccnc(-c4ccc5cc(O)ccc5c4)c3)cc21 [Example 17] | 9.2 | – |
| COC(=O)N1CC(c2cc(-c3cc4c([nH]3)CCNC4=O)ccn2)=Cc2ccccc21 [Example 362, trifluoroacetate] | 73.8 | – |
| CC(C)=NNc1cc(-c2cc3c([nH]2)CCNC3=O)ccn1 [Example 491] | 133 | – |
| C=CC(=O)Nc1cccc(-c2cc(-c3cc4c([nH]3)CCNC4=O)ccn2)c1 [Example 82, trifluoroacetate] | 19.1 | – |
| O=C1NCCc2[nH]c(-c3ccnc(/C=C\c4cc5ccccc5s4)c3)cc21 [Example 623, trifluoroacetate] | 442 | – |
| CC(C)c1ccccc1/C=C/c1cc(-c2cc3c([nH]2)CCNC3=O)ccn1 [Example 599, trifluoroacetate] | 342 | – |
| O=C1NCCc2[nH]c(-c3ccnc(-c4cccc(CN5CCCC5)c4)c3)cc21 [Example 660, trifluoroacetate] | 750 | – |
| O=C1NCCc2[nH]c(-c3ccnc(/C=C/c4c(F)c(F)c(F)c(F)c4F)c3)cc21 [Example 563, trifluoroacetate] | 245 | – |
| Cc1cncc(-c2cc(-c3cc4c([nH]3)CCNC4=O)ccn2)c1 [Example 111, trifluoroacetate] | 22.5 | – |
| Cc1ccc(-c2cc(-c3cc4c([nH]3)CCNC4=O)ccn2)cc1F [Example 150, trifluoroacetate] | 27.6 | – |
| O=C1NCCc2[nH]c(-c3ccnc(/C=C(/F)c4ccccc4)c3)cc21 [Example 497, trifluoroacetate] | 136 | – |
| O=C1NCCc2[nH]c(-c3ccnc(-c4cncc5ccccc45)c3)cc21 [Example 627, trifluoroacetate] | 447 | – |
| O=C(O)c1cccc(-c2cccc(-c3cc(-c4cc5c([nH]4)CCNC5=O)ccn3)c2)c1 [Example 333, trifluoroacetate] | 64.2 | – |
| O=C(NC1CCCCC1)c1ccc(-c2cc(-c3cc4c([nH]3)CCNC4=O)ccn2)c(F)c1 [Example 391, trifluoroacetate] | 83.1 | – |
| O=C1NCCc2[nH]c(-c3ccnc(-c4ccc(C(=O)C5CC5)cc4)c3)cc21 [Example 167, trifluoroacetate] | 29.5 | – |
| CC(C)CCN(CCCc1ccc(-c2cc(-c3cc4c([nH]3)CCNC4=O)ccn2)cn1)CCC(C)C [Example 511, 2-(6′-{3-(bis(3-methylbutyl)amino]propyl}-2,3′-bipyridin-4-yl)-1,5,6,7-tetrahydro-4H-pyrrolo[3,2-c]pyridin-4-one trifluoroacetate] | 151 | – |
| O=C(CCCl)Nc1cccc(-c2cc(-c3cc4c([nH]3)CCNC4=O)ccn2)c1 [Example 336, trifluoroacetate] | 64.5 | – |
| CC(=O)c1cccc(-c2cc(-c3cc4c([nH]3)CCNC4=O)c(F)cn2)c1 [Example 159, trifluoroacetate] | 28.3 | – |
